Laboratory results from PubChem BioAssay AID248 (DTP/NCI, 2004).
“And” between values parts separate entries of the source, which are not always exact repeats. Equal entries are not always repeated. Toxic doses and inconclusive results are not listed. Peptide text beside a SMILES is read from it. * marks the point of attachment. Cbz = O=C(OCc1ccccc1)*

System: L1210 leukemia ip in BDF1 mice, survival T/C
Assay: NCI In Vivo Anticancer Drug Screen. Data for tumor model L1210 Leukemia (intraperitoneal) in B6D2F1 (BDF1) mice
Details: endpoint: mean survival time, higher = longer survival
Summary of the method: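 In this screen, tumor-bearing mice given compound are compared to those given vehicle, and their survival values are reported as a treated-to-control quotient.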

[1] = dose: 75.0 mg/kg/injection, schedule: Q01DX001 (ip), vehicle: saline
[2] = dose: 150.0 mg/kg/injection, schedule: Q01DX001 (ip), vehicle: saline
[3] = dose: 300.0 mg/kg/injection, schedule: Q01DX001 (ip), vehicle: saline
[4] = dose: 100.0 mg/kg/injection, schedule: Q01DX009 (ip), vehicle: Klucel (hydroxypropylcellulose) (HPC)
[5] = dose: 200.0 mg/kg/injection, schedule: Q01DX009 (ip), vehicle: Klucel (hydroxypropylcellulose) (HPC)
[6] = dose: 400.0 mg/kg/injection, schedule: Q01DX009 (ip), vehicle: Klucel (hydroxypropylcellulose) (HPC)
[7] = dose: 100.0 mg/kg/injection, schedule: Q01DX001 (ip), vehicle: Klucel (hydroxypropylcellulose) (HPC)
[8] = dose: 100.0 mg/kg/injection, schedule: Q04DX003 (ip), vehicle: Klucel (hydroxypropylcellulose) (HPC)
[9] = dose: 200.0 mg/kg/injection, schedule: Q01DX001 (ip), vehicle: Klucel (hydroxypropylcellulose) (HPC)
[10] = dose: 50.0 mg/kg/injection, schedule: Q01DX001 (ip), vehicle: saline
[11] = dose: 100.0 mg/kg/injection, schedule: Q01DX001 (ip), vehicle: saline
[12] = dose: 200.0 mg/kg/injection, schedule: Q01DX001 (ip), vehicle: saline
[13] = dose: 400.0 mg/kg/injection, schedule: Q01DX001 (ip), vehicle: saline
[14] = dose: 100.0 mg/kg/injection, schedule: Q04DX003 (ip), vehicle: saline with Tween-80
[15] = dose: 200.0 mg/kg/injection, schedule: Q04DX003 (ip), vehicle: saline with Tween-80
[16] = dose: 400.0 mg/kg/injection, schedule: Q04DX003 (ip), vehicle: saline with Tween-80
[17] = dose: 50.0 mg/kg/injection, schedule: Q01DX001 (ip), vehicle: carboxymethylcellulose (CMC)
[18] = dose: 100.0 mg/kg/injection, schedule: Q01DX001 (ip), vehicle: carboxymethylcellulose (CMC)
[19] = dose: 200.0 mg/kg/injection, schedule: Q01DX001 (ip), vehicle: carboxymethylcellulose (CMC)
[20] = dose: 100.0 mg/kg/injection, schedule: Q04DX003 (ip), vehicle: saline
[21] = dose: 200.0 mg/kg/injection, schedule: Q04DX003 (ip), vehicle: saline
[22] = dose: 400.0 mg/kg/injection, schedule: Q04DX003 (ip), vehicle: saline
[23] = dose: 100.0 mg/kg/injection, schedule: Q01DX009 (ip), vehicle: saline
[24] = dose: 200.0 mg/kg/injection, schedule: Q01DX009 (ip), vehicle: saline
[25] = dose: 200.0 mg/kg/injection, schedule: Q04DX003 (ip), vehicle: Klucel (hydroxypropylcellulose) (HPC)
[26] = dose: 400.0 mg/kg/injection, schedule: Q04DX003 (ip), vehicle: Klucel (hydroxypropylcellulose) (HPC)
[27] = dose: 100.0 mg/kg/injection, schedule: Q01DX009 (ip), vehicle: saline with Tween-80
[28] = dose: 200.0 mg/kg/injection, schedule: Q01DX009 (ip), vehicle: saline with Tween-80
[29] = dose: 12.5 mg/kg/injection, schedule: Q04DX002 (ip), vehicle: saline with Tween-80

## O=C(Nc1c(Oc2ccc(Cl)c(Cl)c2)ccc(Cl)c1S(=O)(=O)O)Nc1c(Oc2ccc(Cl)c(Cl)c2)ccc(Cl)c1S(=O)(=O)O
[1]
  T/C: 101 % of control
[2]
  T/C: 99 % of control
[3]
  T/C: 96 % of control

## CC1CCN(C(=O)NCCCCCCNC(=O)N2CCC(C)CC2)CC1
[4]
  T/C: 100 % of control
[5]
  T/C: 97 % of control
[6]
  T/C: 90 % of control

## C1=NCCc2cc3[nH]c4ccccc4c3cc21
dose: 25.0 mg/kg/injection, schedule: Q01DX009 (ip), vehicle: Klucel (hydroxypropylcellulose) (HPC)
  T/C: 100 % of control
dose: 50.0 mg/kg/injection, schedule: Q01DX009 (ip), vehicle: Klucel (hydroxypropylcellulose) (HPC)
  T/C: 100 % of control
dose: 50.0 mg/kg/injection, schedule: Q04DX003 (ip), vehicle: Klucel (hydroxypropylcellulose) (HPC)
  T/C: 98 % of control
[7]
  T/C: 95 % of control
[4]
  T/C: 102 % of control
[8]
  T/C: 97 % of control
[9]
  T/C: 91 % of control

## CCc1ccccc1NC(=S)NC1CCCCC1
[4]
  T/C: 92 % of control
[5]
  T/C: 101 % of control

## COc1ccc(CN2CCCN(Cc3ccc(OC)cc3OC)C2c2cc(Cl)cc(Cl)c2O)c(OC)c1
[10]
  T/C: 92 % of control
[11]
  T/C: 97 % of control
[12]
  T/C: 92 % of control
[13]
  T/C: 90 % of control

## CC(C)CCCC(C)C1CCC2C3CC(=O)OC4CC(Br)CCC4(C)C3CCC12C (stereo unspecified)
[14]
  T/C: 101 % of control
[15]
  T/C: 101 % of control
[16]
  T/C: 102 % of control

## Nc1nc2ncc(CCCNc3ccc(C(=O)NC(CCC(=O)O)C(=O)O)cc3)nc2c(=O)[nH]1 (stereo unspecified)
[17]
  T/C: 94 % of control
[18]
  T/C: 108 % of control
[19]
  T/C: 94 % of control

## O=C(Nc1ccccc1)C1C2CC3OC(=O)C1C3C2 (stereo unspecified)
[20]
  T/C: 104 % of control and 102 % of control
[21]
  T/C: 95 % of control and 92 % of control
[22]
  T/C: 98 % of control and 104 % of control

## CCC(C(=O)NC(C)c1ccc(-c2ccccc2)cc1)c1ccccc1 (stereo unspecified)
[4]
  T/C: 87 % of control
[5]
  T/C: 92 % of control
[6]
  T/C: 86 % of control

## O=S1(=O)CCCCC1c1ccccc1 (stereo unspecified)
[11]
  T/C: 87 % of control
[23]
  T/C: 98 % of control
[20]
  T/C: 122 % of control
[12]
  T/C: 95 % of control
[24]
  T/C: 87 % of control
[21]
  T/C: 97 % of control
[13]
  T/C: 93 % of control
[22]
  T/C: 98 % of control

## CCC(=O)Oc1c(CC=C(C)C)c(OC(=O)CC)c2ccccc2c1OC(=O)CC
[4]
  T/C: 93 % of control
[8]
  T/C: 90 % of control
[5]
  T/C: 93 % of control
[25]
  T/C: 94 % of control
[6]
  T/C: 88 % of control
[26]
  T/C: 96 % of control

## O=[N+]([O-])c1ccc(S(=O)(=O)Nc2ccccc2-c2ccccc2)cc1
[27]
  T/C: 96 % of control
[14]
  T/C: 91 % of control
[28]
  T/C: 98 % of control
[15]
  T/C: 91 % of control
dose: 400.0 mg/kg/injection, schedule: Q01DX009 (ip), vehicle: saline with Tween-80
  T/C: 96 % of control
[16]
  T/C: 86 % of control

## O=C(O)CCNCC(=O)O
[1]
  T/C: 100 % of control
[2]
  T/C: 100 % of control
[3]
  T/C: 101 % of control

## CSCCC(C)C
dose: 50.0 mg/kg/injection, schedule: Q01DX009 (ip), vehicle: saline with Tween-80
  T/C: 112 % of control
[27]
  T/C: 106 % of control
[14]
  T/C: 95 % of control
[28]
  T/C: 95 % of control
[15]
  T/C: 103 % of control

## C[P+]1(C)CC=C2CCCCC21 (stereo unspecified)
[29]
  T/C: 100 % of control
dose: 25.0 mg/kg/injection, schedule: Q04DX002 (ip), vehicle: saline with Tween-80
  T/C: 98 % of control
dose: 50.0 mg/kg/injection, schedule: Q04DX002 (ip), vehicle: saline with Tween-80
  T/C: 98 % of control

## N/C(=N\O)c1nn(C2OC(CO)C(O)C2O)c2ncnc(N)c12 (stereo unspecified)
dose: 25.0 mg/kg/injection, schedule: Q01DX005 (ip), vehicle: saline
  T/C: 171 % of control

## C=CCNc1ncnc2c1ncn2C1OC(CO)C(O)C1O (stereo unspecified)
dose: 9.5 mg/kg/injection, schedule: Q01DX001 (ip), vehicle: other
  T/C: 100 % of control
dose: 19.0 mg/kg/injection, schedule: Q01DX001 (ip), vehicle: other
  T/C: 97 % of control
dose: 33.0 mg/kg/injection, schedule: Q01DX009 (ip), vehicle: other
  T/C: 104 % of control
dose: 38.0 mg/kg/injection, schedule: Q01DX001 (ip), vehicle: other
  T/C: 94 % of control
dose: 112.0 mg/kg/injection, schedule: Q01DX009 (ip), vehicle: other
  T/C: 166 % of control

## O=S(Cc1ccc(Cl)cc1)c1ccc(Cl)cc1 (stereo unspecified)
[8]
  T/C: 97 % of control
[25]
  T/C: 90 % of control
[26]
  T/C: 104 % of control

## CC(C)[CH2][Sn](=[O])[CH2]C(C)C
dose: 6.25 mg/kg/injection, schedule: Q04DX002 (ip), vehicle: saline with Tween-80
  T/C: 108 % of control
[29]
  T/C: 96 % of control

## CSc1ncc2c(=O)n(-c3ccccc3)[nH]c2n1
[7]
  T/C: 103 % of control
[9]
  T/C: 97 % of control
dose: 400.0 mg/kg/injection, schedule: Q01DX001 (ip), vehicle: Klucel (hydroxypropylcellulose) (HPC)
  T/C: 87 % of control

## COC(=O)C(CC(C)C)NC(=O)C(CC(N)=O)NC(=O)OCc1ccccc1 (stereo not drawn) (Cbz-Asn-Leu-OMe; configuration not given here)
[11]
  T/C: 96 % of control
[12]
  T/C: 93 % of control
[13]
  T/C: 98 % of control

## COc1cc(/C=N/[N+](C)(C)C)ccc1O
dose: 12.5 mg/kg/injection, schedule: Q01DX009 (ip), vehicle: saline with Tween-80
  T/C: 94 % of control
dose: 12.5 mg/kg/injection, schedule: Q04DX003 (ip), vehicle: saline with Tween-80
  T/C: 96 % of control
dose: 25.0 mg/kg/injection, schedule: Q01DX009 (ip), vehicle: saline with Tween-80
  T/C: 96 % of control
dose: 25.0 mg/kg/injection, schedule: Q04DX003 (ip), vehicle: saline with Tween-80
  T/C: 93 % of control
dose: 50.0 mg/kg/injection, schedule: Q04DX003 (ip), vehicle: saline with Tween-80
  T/C: 97 % of control

## CCOC(=O)C1CN(C(C)C)C(=O)C1=O (stereo unspecified)
[10]
  T/C: 100 % of control
[11]
  T/C: 102 % of control
[12]
  T/C: 96 % of control
[13]
  T/C: 114 % of control

## CC(=O)c1ccccc1-n1c(C)ccc1C
[23]
  T/C: 95 % of control
dose: 100.0 mg/kg/injection, schedule: Q04DX003 (ip), vehicle: saline + alcohol
  T/C: 100 % of control
[24]
  T/C: 98 % of control
dose: 200.0 mg/kg/injection, schedule: Q04DX003 (ip), vehicle: saline + alcohol
  T/C: 100 % of control
dose: 400.0 mg/kg/injection, schedule: Q01DX009 (ip), vehicle: saline
  T/C: 98 % of control
dose: 400.0 mg/kg/injection, schedule: Q04DX003 (ip), vehicle: saline + alcohol
  T/C: 108 % of control

## O=C1CCC(=O)N1c1ccc(I)cc1
[17]
  T/C: 96 % of control
[18]
  T/C: 98 % of control
[19]
  T/C: 93 % of control
dose: 400.0 mg/kg/injection, schedule: Q01DX001 (ip), vehicle: carboxymethylcellulose (CMC)
  T/C: 107 % of control

## NCCCSc1ccc(Br)cc1
dose: 75.0 mg/kg/injection, schedule: Q01DX001 (ip), vehicle: other
  T/C: 102 % of control
dose: 150.0 mg/kg/injection, schedule: Q01DX001 (ip), vehicle: other
  T/C: 96 % of control
dose: 300.0 mg/kg/injection, schedule: Q01DX001 (ip), vehicle: other
  T/C: 92 % of control
